In patent publication US20240141374A1, “ON DEMAND EXPRESSION OF EXOGENOUS FACTORS IN LYMPHOCYTES” (priority 0001, published 2024):

Assays:
[1] = test system: HIV recombinant strain NL43 that expresses GFP; test: HIV NL43-GFP infection of primary CD4 T cells transduced with AGT111 at various MOI (Example 7); type: cell-based; settings: 200 nM saquinavir
Experimental: Method: CD4 T cells were separated by negative selection and stimulated for 1 day with TransAct (CD3/CD28 beads) (Miltenyi Biotec) plus IL-2 (30 U/mL) (Thermo Fisher Scientific) and then transduced with lentivirus vector AGT111 (SEQ ID NO: 2) at various MOI.
One day later, cells were infected with 1 MOI of HIV recombinant strain NL43 that expresses GFP. […] As a control, HIV infected cells were treated with 200 nM saquinavir. At the end of the culture, cells were collected and analyzed by flow cytometry for GFP expression and with an APC anti-CD4 antibody. If the CD4 cell expresses GFP, it was infected by HIV.

HIV NL43-GFP [2] = test: HIV NL43-GFP infection of CD8-depleted, CD3/CD28-stimulated PBMC transduced with lentiviral vector encoding 3BNC117 (Example 3); type: cell-based; settings: day six, FIG. 6
Text: Method: On day 0, PBMC were depleted of CD8+ T cells and then stimulated with TransAct (CD3/CD28 beads) (MiltenyiBiotec). On day 1, the PBMC were transduced with a lentiviral vectors expressing the broadly neutralizing antibody (bNAb) against HIV (SEQ ID NO:4; AGT112). The components of the vectors are described in Table 2. The AGT112 vector (SEQ ID NO: 4) contains a CMV promoter (SEQ ID NO: 13) that drives expression of a 3BNC117 antibody sequence that contains an IL-2 secretory sequence (SEQ ID NO: 74 (3BNC117 heavy variable chain (with IL-2 secretory sequence)) and SEQ ID NO: 75 (3BNC117 light variable chain (with IL-2 secretory sequence)). The IL-2 secretory sequence is SEQ ID NO: 11.
On day two (2), the PBMC were then infected with HIV NL43-GFP. On day three, cells were washed three times. On day six, HIV-infected GFP positive cells were measured. This protocol is shown in FIG. 5 but here LV-3BNC117 was substituted for LV-VRC01.

HIV NL43-GFP [3] = test: HIV NL43-GFP infection of PBMC transduced with sCD4 lentiviral vectors (Example 4); type: cell-based; settings: columns NL43+sCD4 / NL43-sCD4-Ig / NL43-Saquinavir
Text: Method: On day 0, PBMC were depleted of CD8+ T cell and then stimulated with TransAct (CD3/CD28 beads) (MiltenyiBiotec). On day 1, PBMC were transduced with lentiviral vectors expressing sCD4 (SEQ ID NO: 8 (AGT116) and SEQ ID NO: 10 (AGT117)).
The components of the vectors are described in Table 2. The AGT116 vector (SEQ ID NO: 8) contains a sCD4 sequence (SEQ ID NO: 7) and an EF-1α promoter (SEQ ID NO: 14) upstream of the sCD4 sequence. The AGT117 vector (SEQ ID NO: 10) contains a sCD4-IgG1 Fc sequence (SEQ ID NO: 9) and an EF-1α promoter (SEQ ID NO: 14) upstream of the sCD4-IgG1 Fc sequence.
On day 2, the PBMC were infected with HIV NL43-GFP. On day 3, the cells were washed three times. Cells were then […]. On day 6, HIV-infected GFP positive cells were measured.

[4] = test system: HIV Gag-specific CD4 T cells; test: Antibody (IgG Fc) expression by HIV Gag-specific CD4 T cells after peptide stimulation (Example 5); type: cell-based, human; settings: for cells positive for IgG Fc: MOI 5
Experimental: Method: To measure antibody expression by HIV Gag-specific CD4 T cells, HIV positive human peripheral blood mononuclear cells (PBMCs) were separated with Ficoll-Paque PLUS (GE Healthcare, Cat: 17-1440-02). Separated PBMCs (1×10^7) were stimulated with PepMix™ HIV (GAG) Ultra (Cat: PM-HIV-GAG, JPT Peptide Technologies) in 1 mL medium in a 24-well plate for 18 hours. CD8 T, γδ, NK, and B cells were depleted with PE labeled specific antibodies and anti-PE microbeads. The negatively selected cells were cultured at 2×10^6/mL in TexMACS GMP medium (Cat: 170-076-309, Miltenyi Biotec) containing IL7 (170-076-111, Miltenyi Biotec), IL15 (170-076-114, Miltenyi Biotec) and saquinavir (Cat: 4658, NIH AIDS Reagent Program). The lentivirus vector AGT111 (SEQ ID NO: 2) encoding anti-HIV antibody VRC01 or AGT112 (SEQ ID NO: 4) encoding anti-HIV antibody 3BNC117 was added 24 hours later at a multiplicity of infection (MOI) of 5.
Fresh medium containing IL7, IL15, and saquinavir was added every 2-3 days during cell expansion. The starting concentration of IL7 and IL15 was 10 ng/mL. On day 12-16, 2-3×10^6 cells were collected for peptide stimulation. The intracellular expression of IFNγ and IgG Fc was detected with a PE anti-IFNγ antibody and an APC anti-IgG1 Fc antibody (Biolegend).

[5] = test system: HIV recombinant strain NL43 that expresses GFP; test: HIV NL43-GFP infection of primary CD4 T cells transduced with AGT103 or AGT118 (Example 17); type: cell-based
Text: Method: CD4 T cells were separated by negative selection and stimulated for 1 day with TransAct (CD3/CD28 beads) (Miltenyi Biotec) plus IL-2 (30 U/mL) (Thermo Fisher Scientific) and then transduced with lentivirus AGT103 (SEQ ID NO: 78) or AGT118 (SEQ ID NO: 80) at a MOI of 5. The AGT103 vector (SEQ ID NO: 78) contains an EF-1α promoter (SEQ ID NO: 14) that drives expression of the miR30-CCR5/miR21-Vif/mir185-Tat microRNA cluster sequence (SEQ ID NO: 65) (miR30-CCR5/miR21-Vif/miR185-Tat microRNA cluster sequence). The miR30-CCR5 sequence is SEQ ID NO: 62. The miR21-Vif sequence is SEQ ID NO: 63. The miR185-Tat sequence is SEQ ID NO: 64. The AGT118 vector (SEQ ID NO: 80) contains an EF-1α promoter (SEQ ID NO: 14) that drives expression of sCD4(D1+D2)-IgG1 Fc (SEQ ID NO: 9) and the miR30-CCR5/miR21-Vif/miR185-Tat microRNA cluster sequence (SEQ ID NO: 65).
One day later, cells were infected with 1 MOI of HIV recombinant strain NL43 that expresses GFP. After 24 hours, CD3/CD28 beads, lentivirus and HIV were removed by washing 3 times with PBS and cultured in RPMI 1640 medium (Thermo Fisher Scientific) containing 10% FBS (Gemini Bio) and 1% Pen-Strep (Thermo Fisher Scientific) with IL-2 (30 U/mL) in a 37° C. incubator at 5% C02 for 7 days with medium supplementation as needed. At the end of the culture, cells were collected and analyzed by flow cytometry. […]

Molecule	percentage of GFP positive cells ([1]; day 5)	percentage of GFP positive cells ([1]; day 7)	percentage of GFP positive cells ([1]; day 9)	GFP positive cells (HIV NL43-GFP [2]; NY025 donor)	GFP positive cells (HIV NL43-GFP [2]; NY026 donor)	percent of GFP positive cells (HIV NL43-GFP [3]; FIG. 8A bottom row)	percent of GFP positive cells (HIV NL43-GFP [3]; FIG. 8B bottom row)	increase in fluorescence intensity of IgG relative to DMSO treated cells ([4]; Gag PepMix vs DMSO)	cells positive for IgG Fc ([4]; stimulation with Gag PepMix on day 12)	cells positive for IgG Fc ([4]; treated with DMSO (no peptide))	cells HIV positive ([5]; primary CD4 T cells, MOI of 5)	decrease in HIV infection ([5]; vs control treated cells)
CC(C)(C)NC(=O)[C@@H]1C[C@@H]2CCCC[C@@H]2CN1C[C@@H](O)[C@H](Cc1ccccc1)NC(=O)[C@H](CC(N)=O)NC(=O)c1ccc2ccccc2n1 [Saquinavir, saquinavir]	0.19%	0.22%	0.24%	0.025%	2.43E-3%	0.017%	0.026%	–	–	–	–	–
3BNC117: human IgG1 monoclonal antibody targeting the CD4 binding site on HIV gp160; expressed in cells from vector AGT112 (protein, constant regions lack entries; misc_feature 1..441 3BNC117 Heavy Variable Chain (with IL-2 secretory signal); misc_feature 1..369 3BNC117 Light Variable Chain (with IL-2 secretory signal), expressed in cells from vector AGT112) chain 1: MYRMQLLSCIALSLALVTQVQLLQSGAAVTKPGASVRVSCEASGYNIRDYFIHWWRQAPGQGLQWVGWINPKTGQPNNPRQFQGRVSLTRHASWDFDTFSFYMDLKALRSDDTAVYFCARQRSDYWDFDVWGSGTQVTVSSASTKGP chain 2: MYRMQLLSCIALSLALVTDIQMTQSPSSLSASVGDTVTITCQANGYLNWYQQRRGKAPKLLIYDGSKLERGVPSRFSGRRWGQEYNLTINNLQPEDIATYFCQVYEFVVPGTRLDLKRTVAAP	–	–	–	1.79%	0.30%	–	–	approximately 10 fold	1.58%	0.13%	–	–
AGT103: Vector encoding inhibitory RNA sequences targeting CCR5 and HIV Vif/Tat with EF-1α promoter (SEQ ID NO: 78) (nucleic acid, misc_feature 1..1469 AGT103) DNA: CCGGTGCCTAGAGAAGGTGGCGCGGGGTAAACTGGGAAAGTGATGTCGTGTACTGGCTCCGCCTTTTTCCCGAGGGTGGGGGAGAACCGTATATAAGTGCAGTAGTCGCCGTGAACGTTCTTTTTCGCAACGGGTTTGCCGCCAGAACACAGGTAAGTGCCGTGTGTGGTTCCCGCGGGCCTGGCCTCTTTACGGGTTATGGCCCTTGCGTGCCTTGAATTACTTCCACGCCCCTGGCTGCAGTACGTGATTCTTGATCCCGAGCTTCGGGTTGGAAGTGGGTGGGAGAGTTCGAGGCCTTGCGCTTAAGGAGCCCCTTCGCCTCGTGCTTGAGTTGAGGCCTGGCCTGGGCGCTGGGGCCGCCGCGTGCGAATCTGGTGGCACCTTCGCGCCTGTCTCGCTGCTTTCGATAAGTCTCTAGCCATTTAAAATTTTTGATGACCTGCTGCGACGCTTTTTTTCTGGCAAGATAGTCTTGTAAATGCGGGCCAAGATCTGCACACTGGTATTTCGGTTTTTGGGGCCGCGGGCGGCGACGGGGCCCGTGCGTCCCAGCGCACATGTTCGGCGAGGCGGGGCCTGCGAGCGCGGCCACCGAGAATCGGACGGGGGTAGTCTCAAGCTGGCCGGCCTGCTCTGGTGCCTGGCCTCGCGCCGCCGTGTATCGCCCCGCCCTGGGCGGCAAGGCTGGCCCGGTCGGCACCAGTTGCGTGAGCGGAAAGATGGCCGCTTCCCGGCCCTGCTGCAGGGAGCTCAAAATGGAGGACGCGGCGCTCGGGAGAGCGGGCGGGTGAGTCACCCACACAAAGGAAAAGGGCCTTTCCGTCCTCAGCCGTCGCTTCATGTGACTCCACGGAGTACCGGGCGCCGTCCAGGCACCTCGATTAGTTCTCGAGCTTTTGGAGTACGTCGTCTTTAGGTTGGGGGGAGGGGTTTTATGCGATGGAGTTTCCCCACACTGAGTGGGTGGAGACTGAAGTTAGGCCAGCTTGGCACTTGATGTAATTCTCCTTGGAATTTGCCCTTTTTGAGTTTGGATCTTGGTTCATTCTCAAGCCTCAGACAGTGGTTCAAAGTTTTTTTCTTCCATTTCAGGTGTCGTGATGTACAAGGTATATTGCTGTTGACAGTGAGCGACTGTAAACTGAGCTTGCTCTACTGTGAAGCCACAGATGGGTAGAGCAAGCACAGTTTACCGCTGCCTACTGCCTCGGACTTCAAGGGGCTTCCCGGGCATCTCCATGGCTGTACCACCTTGTCGGGGGATGTGTACTTCTGAACTTGTGTTGAATCTCATGGAGTTCAGAAGAACACATCCGCACTGACATTTTGGTATCTTTCATCTGACCAGCTAGCGGGCCTGGCTCGAGCAGGGGGCGAGGGATTCCGCTTCTTCCTGCCATAGCGTGGTCCCCTCCCCTATGGCAGGCAGAAGCGGCACCTTCCCTCCCAATGACCGCGTCTTCGTC	–	–	–	–	–	–	–	–	–	–	0.86%	75.6%
